# Experimental data taken from patent publication US8377974B2 (Millennium Pharmaceuticals, Inc., priority 2004, dated 2013).
# Target: T1, human plasma protein factor Xa (Homo sapiens, UniProt P00742)
# T1 construct: measure proteolytic activity of the enzyme (factor Xa); purchased Haematologic Technologies (Essex Junction, Vt.); host or cells: human plasma
# Experiment: Factor Xa IC50 determination: cleavage of paranitroanilide substrate S-2765 in 96-well plates
# Format: biochemical
# Conditions: fXa 1 nM, S-2765 100 μM, Tris buffered saline pH 7.4, room temperature
# Excerpt: This example illustrates methods for evaluating the compounds of the invention, along with results obtained for such assays. The in vitro and in vivo Factor Xa isoform activities of the inventive compounds can be determined by various procedures known in the art, such as a test for their ability to inhibit the activity of the Factor Xa isoform. […] The IC50 value is the concentration (in nM) of the compound required to provide 50% inhibition of Factor Xa isoform.
# An in vitro assay for detecting and measuring inhibition activity against Factor Xa is as follows:
# The substrate S-2765 (Z-D-Arg-Gly-Arg-pNA.HCl) was obtained from Diapharma (West Chester, Ohio).
# The human plasma protein factor Xa was purchased from Haematologic Technologies (Essex Junction, Vt.).
# All assays, which are performed in 96-well microtiter plates, measure proteolytic activity of the enzyme (factor Xa) by following cleavage of paranitroanilide substrate. The assay buffer used for proteolytic assays was Tris buffered saline (20 mM Tris, 150 mM NaCl, 5 mM CaCl2, 0.1% Bovine serum albumin (BSA), 5% Dimethly Sulfoxide (DMSO) pH 7.4). In a 96-well microtiter plate, inhibitor was serially diluted to give a range of concentrations from 0.01 nM to 10 μM (final). Duplicate sets of wells were assayed and control wells without inhibitor were included. Enzyme was added to each well, (fXa concentration=1 nM), the plate was shaken for 5 seconds and then incubated for 5 minutes at room temperature. S2765 was added (100 μM final) and the plate was shaken for 5 seconds (final liquid volume in each well was 200 μl). The degree of substrate hydrolysis was measured at 405 nm on a Thermomax plate reader (Molecular Devices, Sunnyvale, Calif.) for 2 minutes. The initial velocities (mOD/min), for each range of inhibitor concentrations, were fitted to a four parameter equation using Softmax data analysis software. The parameter C, derived from the resulting curve-fit, corresponded to the concentration for half maximal inhibition (IC50).
# T1 sequence (P00742 235-488 limits assumed): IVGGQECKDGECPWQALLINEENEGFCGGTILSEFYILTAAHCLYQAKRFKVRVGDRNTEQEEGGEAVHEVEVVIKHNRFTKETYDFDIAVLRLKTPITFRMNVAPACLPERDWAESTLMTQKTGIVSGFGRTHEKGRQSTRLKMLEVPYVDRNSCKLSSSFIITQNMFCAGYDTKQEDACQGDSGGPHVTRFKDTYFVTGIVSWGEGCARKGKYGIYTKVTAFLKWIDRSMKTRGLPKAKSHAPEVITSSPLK
# T1 sequence (P00742 41-179 partner limits assumed): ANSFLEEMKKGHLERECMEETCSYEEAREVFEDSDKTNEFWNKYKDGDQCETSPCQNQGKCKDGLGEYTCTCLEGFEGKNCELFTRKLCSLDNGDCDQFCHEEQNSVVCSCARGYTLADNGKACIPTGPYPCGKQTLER
row,SMILES,IC50 [nM]
1,"O=C(NCc1cn(-c2ccc(N3CCOCC3=O)cc2)nn1)c1ccc(Cl)s1 [Example 301, 5-Chloro-N-((1-(4-(3-oxomorpholino)phenyl)-1H-1,2,3-triazol-4-yl)methyl)thiophene-2-carboxamide]",≤ 100
2,"CN(Cc1cc(-c2ccc(C(=N)N3CCC(C(N)=O)CC3)cc2)no1)C(=O)c1ccc(Cl)s1 [Example 45, 1-{[4-(5-{[(5-Chloro-thiophene-2-carbonyl)-methyl-amino]-methyl}-isoxazol-3-yl)-phenyl]-imino-methyl}-piperidine-4-carboxylic acid amide]",≥ 500
3,"CCOC(=O)C1CCN(C(=N)c2ccc(-c3nc(CNC(=O)c4ccc(Cl)s4)cs3)cc2)CC1 [Example 354, Ethyl 1-((4-(4-((2-chlorothiophene-5-carboxamido)methyl)thiazol-2-yl)phenyl)(imino)methyl)piperidine-4-carboxylate]",100 to 500
4,"CC1(CNC(=O)c2ccc(Cl)s2)CC(c2ccc(C(=N)N3CCC3)cc2)=NO1 (centres unmarked) [Example 62, 5-Chloro-thiophene-2-carboxylic acid {3-[4-(azetidin-1-yl-imino-methyl)-phenyl]-5-methyl-4,5-dihydro-isoxazol-5-ylmethyl}-amide]",≤ 100
5,"O=C(NCc1cc(C2CCN(Cc3ccccc3)CC2)no1)c1ccc(Cl)s1 [Example 178, 5-Chloro-thiophene-2-carboxylic acid [3-(1-benzyl-piperidin-4-yl)-isoxazol-5-ylmethyl]-amide]",≥ 500
6,"N=C(c1ccc(-c2cc(CNC(=O)c3ccc(Cl)s3)on2)c(F)c1)N1CCCC1 [Example 71, 5-Chloro-thiophene-2-carboxylic acid {3-[2-fluoro-4-(imino-pyrrolidin-1-yl-methyl)-phenyl]-isoxazol-5-ylmethyl}-amide]",≤ 100
7,"CN(C)C(=N)c1ccc(-c2noc(CNC(=O)c3ccc(Cl)s3)n2)cc1 [Example 334, N-((3-(4-(N,N-Dimethylcarbamimidoyl)phenyl)-1,2,4-oxadiazol-5-yl)methyl)-5-chlorothiophene-2-carboxamide]",≤ 100
8,"CN(C)C(=N)c1ccc(C2=NOC(C)(CNC(=O)c3ccc(Cl)s3)C2)cc1 (centres unmarked) [Example 57, 5-Chloro-thiophene-2-carboxylic acid {3-[4-(N,N-dimethyl-carbamimidoyl)-phenyl]-5-methyl-4,5-dihydro-isoxazol-5-ylmethyl}-amide]",≤ 100
9,"N=C(c1ccc(-c2cc(CNC(=O)c3ccc(Cl)s3)on2)c(F)c1)N1CCCCC1 [Example 72, 5-Chloro-thiophene-2-carboxylic acid {3-[2-fluoro-4-(imino-piperidin-1-yl-methyl)-phenyl]-isoxazol-5-ylmethyl}-amide]",≤ 100
10,"CN1CCCN(c2ccc(C3=NOC(CNC(=O)c4ccc(Cl)s4)C3)c(F)c2)CC1 (centres unmarked) [Example 248, 5-Chloro-thiophene-2-carboxylic acid {3-[2-fluoro-4-(4-methyl-[1,4]diazepan-1-yl)-phenyl]-4,5-dihydro-isoxazol-5-ylmethyl}-amide]",≤ 100
11,"N=C(c1ccc(-c2cncc(CNC(=O)c3ccc(Cl)s3)c2)cc1)N1CCCCC1 [Example 373, 5-Chloro-N-((5-(4-(imino(piperidin-1-yl)methyl)phenyl)pyridin-3-yl)methyl)thiophene-2-carboxamide]",≤ 100
12,"O=C(NCc1cn(-c2ccc(N3CCOCC3)nc2)nn1)c1ccc(Cl)s1 [Example 386, 5-Chloro-N-((1-(6-morpholinopyridin-3-yl)-1H-1,2,3-triazol-4-yl)methyl)thiophene-2-carboxamide]",100 to 500
13,"O=C(NCC1CC(c2ccc(Nc3ccccc3)cc2)=NO1)c1ccc(Cl)s1 (centres unmarked) [Example 222, 5-Chloro-thiophene-2-carboxylic acid [3-(4-phenylamino-phenyl)-4,5-dihydro-isoxazol-5-ylmethyl]-amide]",≥ 500
14,"CN(C)C(=O)c1ccc(C2=NOC(CNC(=O)c3ccc(Cl)s3)C2)cc1 (centres unmarked) [Example 162, 5-Chloro-thiophene-2-carboxylic acid [3-(4-dimethylcarbamoyl-phenyl)-4,5-dihydro-isoxazol-5-ylmethyl]-amide]",≤ 100
15,"CCOC(=O)C1CCN(C(=N)c2ccc(-c3nc(CNC(=O)c4ccc(Cl)s4)co3)cc2)CC1 [Example 342, Ethyl 1-((4-(4-((2-chlorothiophene-5-carboxamido)methyl)oxazol-2-yl)phenyl)(imino)methyl)piperidine-4-carboxylate]",100 to 500
16,"COc1ccc(Oc2cc(C(=N)N3CCCC3)ccc2-c2cc(CNC(=O)c3ccc(Cl)s3)on2)cc1 [Example 135, 5-Chloro-thiophene-2-carboxylic acid {3-[4-(imino-pyrrolidin-1-yl-methyl)-2-(4-methoxy-phenoxy)-phenyl]-isoxazol-5-ylmethyl}-amide]",≤ 100
17,"O=C(NCC1CC(c2ccc(Nc3cccnc3)cc2)=NO1)c1ccc(Cl)s1 (centres unmarked) [Example 225, 5-Chloro-thiophene-2-carboxylic acid {3-[4-(pyridin-3-ylamino)-phenyl]-4,5-dihydro-isoxazol-5-ylmethyl}-amide]",≤ 100

# Second part, the molecule after the results:
row,IC50 [nM],SMILES
1,≤ 100,"COc1ccc(Oc2cc(C3=NCCN3C)ccc2-c2cc(CNC(=O)c3ccc(Cl)s3)on2)cc1 [Example 134, 5-Chloro-thiophene-2-carboxylic acid {3-[2-(4-methoxy-phenoxy)-4-(1-methyl-4,5-dihydro-1H-imidazol-2-yl)-phenyl]-isoxazol-5-ylmethyl}-amide]"
2,≥ 500,"CN(Cc1cc(-c2ccc(C(=N)N3CCCC3)cc2)no1)C(=O)c1ccc(Cl)s1 [Example 37, 5-Chloro-thiophene-2-carboxylic acid {3-[4-(imino-pyrrolidin-1-yl-methyl)-phenyl]-isoxazol-5-ylmethyl}-methyl-amide]"
3,≤ 100,"O=C(NCC1CC(c2ccc(-c3cc(Cl)ccc3CN3CCCC3)cc2)=NO1)c1ccc(Cl)s1 (centres unmarked) [Example 205, 5-Chloro-thiophene-2-carboxylic acid [3-(5′-chloro-2′-pyrrolidin-1-ylmethyl-biphenyl-4-yl)-4,5-dihydro-isoxazol-5-ylmethyl]-amide]"
4,100 to 500,"Cn1ccc(Nc2ccc(C3=NOC(CNC(=O)c4ccc(Cl)s4)C3)cc2)n1 (centres unmarked) [Example 233, 5-Chloro-thiophene-2-carboxylic acid {3-[4-(1-methyl-1H-pyrazol-3-ylamino)-phenyl]-4,5-dihydro-isoxazol-5-ylmethyl}-amide]"
5,≥ 500,"COCCN(C)C(=N)c1ccc(-c2cc(CN(C)C(=O)c3ccc(Cl)s3)on2)cc1 [Example 46, 5-Chloro-thiophene-2-carboxylic acid (3-{4-[N-(2-methoxy-ethyl)-N-methyl-carbamimidoyl]-phenyl}-isoxazol-5-ylmethyl)-methyl-amide]"
6,≤ 100,"Cc1cccn(-c2ccc(-n3cc(CNC(=O)c4ccc(Cl)s4)nn3)cc2)c1=O [Example 293, 5-Chloro-N-((1-(4-(3-methyl-2-oxopyridin-1(2H)-yl)phenyl)-1H-1,2,3-triazol-4-yl)methyl)thiophene-2-carboxamide]"
7,100 to 500,"N=C(c1ccc(C2=NOC(CNC(=O)c3ccc(Cl)s3)C2)c(N2CCCC2)c1)N1CCCC1 (centres unmarked) [Example 80, 5-Chloro-thiophene-2-carboxylic acid {3-[4-(imino-pyrrolidin-1-yl-methyl)-2-pyrrolidin-1-yl-phenyl]-4,5-dihydro-isoxazol-5-ylmethyl}-amide]"
8,≥ 500,"O=C(NCc1cc(-c2ccc(-c3cccnc3)cc2)no1)c1ccc(Cl)s1 [Example 192, 5-Chloro-thiophene-2-carboxylic acid [3-(4-pyridin-3-yl-phenyl)-isoxazol-5-ylmethyl]-amide]"
9,≤ 100,"COCCN(C)c1cc(C(=N)N(C)C)ccc1C1=NOC(CNC(=O)c2ccc(Cl)s2)C1 (centres unmarked) [Example 86, 5-Chloro-thiophene-2-carboxylic acid (3-{4-(N,N-dimethyl-carbamimidoyl)-2-[(2-methoxy-ethyl)-methyl-amino]-phenyl}-4,5-dihydro-isoxazol-5-ylmethyl)-amide]"
10,100 to 500,"O=C(NCc1cn(-c2ccc(N3CCCOCC3)nc2)nn1)c1ccc(Cl)s1 [Example 385, N-((1-(6-(1,4-Oxazepan-4-yl)pyridin-3-yl)-1H-1,2,3-triazol-4-yl)methyl)-5-chlorothiophene-2-carboxamide]"
11,≥ 500,"CNC(=N)c1ccc(-c2nc(CNC(=O)c3ccc(Cl)s3)cs2)cc1 [Example 358, N-((2-(4-(N-Methylcarbamimidoyl)phenyl)thiazol-4-yl)methyl)-5-chlorothiophene-2-carboxamide]"
12,≥ 500,"O=C(NCc1cc(-c2cccc(-c3ccc(CN4CCCC4)cc3)c2)no1)c1ccc(Cl)s1 [Example 273, 5-Chloro-thiophene-2-carboxylic acid [3-(4′-pyrrolidin-1-ylmethyl-biphenyl-3-yl)-isoxazol-5-ylmethyl]-amide]"
